The target in test [1] is human Cdc7/human ASK complex protein (Homo sapiens (Human), UniProt O00311). Put plainly: Inhibitory effect on Cdc7 protein kinase (MSA assay kit). The test is classed as biochemical. As to the method:
[Inhibitory Effect on Cdc7 Protein Kinase]
Measurement of kinase activity was carried out using an MSA assay kit (QuickScout Screening Assist™ Kit, Carna Biosciences, Inc.).
Assay buffer (20 mM HEPES, 0.01% Triton X-100™, 2 mM dithiothreitol, pH 7.5) was used to prepare a substrate mixture solution comprising 4 μM of a kinase-reaction substrate (FITC-labeled MCM2 peptide), 40 mM MgCl2, and 20 μM ATP.
The enzyme supplied in the kit (human Cdc7/human ASK complex protein) was diluted in the assay buffer so as to be at 7 nM, thereby preparing an enzyme solution.
The stock solution of each test compound was diluted in DMSO to prepare diluted DMSO solutions of 10 concentrations (0.00003 mM, 0.0001 mM, 0.0003 mM, 0.001 mM, 0.003 mM, 0.01 mM, 0.03 mM, 0.1 mM, 0.3 mM, 1 mM), each of which was further diluted 25 times in the assay buffer to make a drug solution (a solution containing 4% DMSO).
The kinase reaction was performed in wells of a polypropylene 384-well plate in which 5 μl of each of the drug solutions or of a solvent (assay buffer containing 4% DMSO), 5 μl of the substrate mixture solution, and 10 μl of the enzyme solution were mixed. The assay buffer, instead of the enzyme solution, was added to blank wells. After the reaction at room temperature for 5 hours, 60 μl of the termination buffer supplied in the kit was added to each well to stop the reaction. The percent inhibition of each reaction was determined using a LabChip EZ Reader II system (manufactured by Caliper Life Sciences), according to the protocol provided with the assay kit. In this case, the peak heights of the separated substrate and the phosphorylated substrate were represented as S and P, respectively, and the percent inhibition (%) by a tested compound was calculated according to the following formula: Percent inhibition(%)=(1−(C−A)/(B−A))×100 wherein A denotes P/(P+S) for a blank well, B denotes P/(P+S) for a solvent well, and C denotes P/(P+S) for a compound-added well.
The IC50 value of a tested compound was calculated by regression analysis of the percent inhibition values versus the (logarithmic) concentrations of the tested compound.

In test [2] the test system is MCM2 phosphorylation in COLO205 cells. The test is described as follows: Inhibitory effect on MCM2 phosphorylation using cells (Western blot). The test is classed as cell-based. As to conditions: Homo sapiens, COLO 205, 0.1 μM test compound, 24 hours, class by percent phosphorylation of MCM2, read-out: Test Example 2 Inhibitory effect on MCM2 phosphorylation. As to the method: [Inhibitory Effect on Phosphorylation Using Cells]
COLO205 cells derived from human colon adenocarcinoma (RCB2127, RIKEN BRC) were cultured in 10 cm dishes using RPMI-1640 medium (SIGMA, R8758) supplemented with 10% FCS (Equitech-bio) and 5% penicillin/streptomycin (GIBCO, 15140). After the cells were cultured to a confluence of 70 to 90%, the medium was removed, and the cells were treated with trypsin (2 mL, TrypLE Express, GIBCO, 12604-021) and then harvested using a new medium.
COLO205 cells were seeded in 6-well plates (FALCON, 35046) to 2.5×10^5 cells (1 ml) per well and cultured overnight in a 5% CO2 incubator. A drug solution, which was prepared by adding 1.5 μl of a 0.1-mM stock solution in DMSO of a test compound to 500 μl of medium, was added to each well (to a final drug concentration of 0.1 μM), and then cultured for another 24 hours.
Cells were cultured for 24 hours in the presence of a test compound, harvested using a similar way as described above, washed with PBS, and then pelletized and stored at −80° C. The frozen cells were thawed, subsequently suspended immediately in 2×SDS-PAGE electrophoresis buffer (1×10^5 cells per 10 μl), and heated at 95° C. for 10 minutes, leading to the dissolution and denaturation of the proteins. The resulting sample solutions were subjected to SDS-PAGE using a 5-20% gradient acrylamide gel (e-PAGEL (5-20%), ATTO, E-T520L). After the electrophoresis was completed, the gel was immersed in tris-glycine buffer supplemented with 20% methanol, and the proteins in the gel were transferred onto a PVDF membrane (MILLIPORE, Immobilon-P, IPVH00010) using a semi-dry transfer apparatus (TRNS-BLOT SD SEMI-DRY […] CELL, BIO RAD).
The transferred PVDF membrane was blocked with 5% skim milk (Difco Skim Milk, BD, 232100), and then subjected to reaction with an anti-MCM2 goat antibody (N-19, Santa Cruz, sc-9839) or anti-phosphorylated MCM2 rabbit antibody (S53) (Bethyl, A300-756A) as a primary antibody and additionally with an anti-α tubulin mouse antibody (Clone DM 1A, SIGMA, 9026) as an internal control. Each band was detected by chemiluminescence using an HRP-labeled anti-goat IgG donkey antibody (Santa Cruz, sc2020), anti-rabbit IgG sheep antibody (Roche, 12015218001), or anti-mouse IgG donkey antibody (Jackson ImmunoResearch, 715-035-151) as a secondary antibody. The combinations of and the diluted concentrations of the primary and secondary antibodies were as indicated below.
The bands which were detected were normalized using the amount of endogenous α-tubulin as a reference, and the percent phosphorylation of MCM2 was calculated for each of the tested compounds. Their inhibitory effects on MCM2 phosphorylation were indicated by a triple asterisk (***) in the case where the percent phosphorylation of MCM2 was less than 20%, by a dual asterisk (**) in the case where the percent phosphorylation of MCM2 was not less than 20% and less than 50%, and by a single asterisk (*) in the case where the percent phosphorylation of MCM2 was not less than 50% and less than 70%.
For orientation: Immunoblotting shows a protein as a band on a membrane.

[3] abbreviates: human Cdc7/human ASK complex, FITC-labeled MCM2 peptide substrate, reaction 5 hours at room temperature, read-out: Test Example 1 Cdc7 IC50 value.

Where two headings read alike, the source gives them in different places.

As a reminder, the IC50 is the point on the concentration scale where inhibition reaches its midpoint.

Chain of human Cdc7/human ASK complex protein (O00311 whole entry): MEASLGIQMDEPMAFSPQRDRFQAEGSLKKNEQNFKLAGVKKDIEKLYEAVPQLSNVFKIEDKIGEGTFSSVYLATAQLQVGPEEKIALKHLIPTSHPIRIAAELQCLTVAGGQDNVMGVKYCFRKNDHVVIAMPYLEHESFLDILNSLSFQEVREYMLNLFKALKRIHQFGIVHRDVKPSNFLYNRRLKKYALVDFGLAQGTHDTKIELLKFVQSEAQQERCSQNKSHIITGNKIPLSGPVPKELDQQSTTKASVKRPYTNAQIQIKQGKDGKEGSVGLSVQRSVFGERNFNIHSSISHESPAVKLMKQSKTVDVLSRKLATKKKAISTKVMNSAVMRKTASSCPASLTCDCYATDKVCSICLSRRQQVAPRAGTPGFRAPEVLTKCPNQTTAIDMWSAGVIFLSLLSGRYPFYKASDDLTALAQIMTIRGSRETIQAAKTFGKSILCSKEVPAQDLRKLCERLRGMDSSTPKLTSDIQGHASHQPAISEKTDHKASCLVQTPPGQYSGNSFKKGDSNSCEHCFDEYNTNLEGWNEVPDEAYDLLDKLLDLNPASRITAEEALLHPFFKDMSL
Chain of human Cdc7/human ASK complex protein (Q9UBU7 whole entry partner): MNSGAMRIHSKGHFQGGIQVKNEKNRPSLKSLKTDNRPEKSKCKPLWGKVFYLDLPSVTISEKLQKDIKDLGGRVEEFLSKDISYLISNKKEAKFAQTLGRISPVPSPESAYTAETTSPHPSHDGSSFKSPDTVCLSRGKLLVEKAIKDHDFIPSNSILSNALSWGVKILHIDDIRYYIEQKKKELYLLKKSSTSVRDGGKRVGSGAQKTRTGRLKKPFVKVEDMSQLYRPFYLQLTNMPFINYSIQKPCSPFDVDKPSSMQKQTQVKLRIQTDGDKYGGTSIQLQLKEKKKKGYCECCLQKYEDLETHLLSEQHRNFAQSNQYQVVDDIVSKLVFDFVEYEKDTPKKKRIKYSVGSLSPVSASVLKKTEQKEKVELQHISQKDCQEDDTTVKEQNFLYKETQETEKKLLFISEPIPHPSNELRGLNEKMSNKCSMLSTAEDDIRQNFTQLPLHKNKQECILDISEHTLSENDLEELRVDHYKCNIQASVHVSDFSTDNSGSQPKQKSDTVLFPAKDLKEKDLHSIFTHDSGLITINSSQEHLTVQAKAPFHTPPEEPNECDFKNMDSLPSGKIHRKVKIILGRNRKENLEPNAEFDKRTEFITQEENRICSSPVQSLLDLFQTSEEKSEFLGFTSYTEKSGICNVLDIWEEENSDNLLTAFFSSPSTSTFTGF

In the case of `CCOC(=O)C1=C(Nc2ccccc2Cl)O/C(=C\c2c[nH]c3ncccc23)C1=O` [Example 15, Ethyl 5-[(1H-pyrrolo[2,3-b]pyridin-3-yl)methylene]-2-[(2-chlorophenyl)amino]-4-oxo-4,5-dihydrofuran-3-carboxylate], the IC50 in test [1] (setting [3]) worked out at 2 nM. Besides, the inhibition at 0.1 µM in test [2] is 20 to 50%.

Regarding `O=C(O)C1=C(Nc2ccccc2)O/C(=C\c2c[nH]c3ncccc23)C1=O` [Example 22, 5-[(1H-Pyrrolo[2,3-b]pyridin-3-yl)methylene]-4-oxo-2-(phenylamino)-4,5-dihydrofuran-3-carboxylic acid], the inhibition at 0.1 µM in test [2] was in the range of 50 to 70%. On to `CCOC(=O)C1=C(N2CCCCCC2)O/C(=C\c2c[nH]c3ncccc23)C1=O` [Example 63], for which the inhibition at 0.1 µM in test [2] is < 20%.

Turning to `CCOC(=O)C1=C(Nc2ccc3cn[nH]c3c2)O/C(=C\c2c[nH]c3ncccc23)C1=O` [Example 68, Ethyl 5-[(1H-pyrrolo[2,3-b]pyridin-3-yl)methylene]-2-[(6-indazolyl)amino]-4-oxo-4,5-dihydrofuran-3-carboxylate], the IC50 in test [1] (setting [3]) amounted to 4 nM. Moreover, in test [2], the inhibition at 0.1 µM was < 20%. The like results for `CCOC(=O)C1=C(N2CCC(C)CC2)O/C(=C\c2c[nH]c3ncccc23)C1=O` [Example 78, Ethyl 5-[(1H-pyrrolo[2,3-b]pyridin-3-yl)methylene]-2-(4-methylpiperidino)-4-oxo-4,5-dihydrofuran-3-carboxylate] were, in that order, 11 nM and < 20%. The like results for `CCOC(=O)C1=C(Nc2ccc(OCCO)cc2F)OC(=Cc2c[nH]c3ncccc23)C1=O` [Example 81, Ethyl 5-[(1H-pyrrolo[2,3-b]pyridin-3-yl)methylene]-2-{[2-fluoro-4-(2-hydroxyethoxy)phenyl]amino}-4-oxo-4,5-dihydrofuran-3-carboxylate] were, in that order, 5 nM and < 20%. Take `O=C(OCCCO)C1=C(Nc2ccc(F)cc2)O/C(=C\c2c[nH]c3ncccc23)C1=O` [Example 89, 3-Hydroxypropyl 5-[(1H-pyrrolo[2,3-b]pyridin-3-yl)methylene]-2-[(4-fluorophenyl)amino]-4-oxo-4,5-dihydrofuran-3-carboxylate]: the IC50 in test [1] (setting [3]) turned out to be 3 nM. Besides, the inhibition at 0.1 µM in test [2] was < 20%. With `CN(C)CCOC(=O)C1=C(Nc2ccc(F)cc2F)O/C(=C\c2c[nH]c3ncccc23)C1=O` [Example 91, 2-(Dimethylamino)ethyl 5-[(1H-pyrrolo[2,3-b]pyridin-3-yl)methylene]-2-[(2,4-difluorophenyl)amino]-4-oxo-4,5-dihydrofuran-3-carboxylate], in test [1] (setting [3]), the IC50 was determined as 4 nM. In addition, the inhibition at 0.1 µM in test [2] is < 20%. The like results for `CCOC(=O)C1=C(N2CCc3ccccc3C2)O/C(=C\c2c[nH]c3ncccc23)C1=O` [Example 102, Ethyl 5-[(1H-pyrrolo[2,3-b]pyridin-3-yl)methylene]-2-(3,4-dihydroisoquinolin-2(1H)-yl)-4-oxo-4,5-dihydrofuran-3-carboxylate] were, in that order, 4 nM and < 20%. `CCOC(=O)C1=C(Nc2ccc(NCCO)cc2C)O/C(=C\c2c[nH]c3ncccc23)C1=O` [Example 126, Ethyl 5-[(1H-pyrrolo[2,3-b]pyridin-3-yl)methylene]-2-({4-[(2-hydroxyethyl)amino]-2-methylphenyl}amino)-4-oxo-4,5-dihydrofuran-3-carboxylate]: in test [1] (setting [3]), the IC50 came to 3 nM. In test [2], the inhibition at 0.1 µM is < 20%.

Consider `CCOC(=O)C1=C(Nc2ccc(CN(C)C)cc2C)O/C(=C\c2c[nH]c3ncccc23)C1=O` [Example 129, Ethyl 5-[(1H-pyrrolo[2,3-b]pyridin-3-yl)methylene]-2-({4-[(dimethylamino)methyl]-2-methylphenyl}amino)-4-oxo-4,5-dihydrofuran-3-carboxylate], for which the IC50 in test [1] (setting [3]) was 9 nM. For the same compound, in test [2], the inhibition at 0.1 µM was < 20%. In the case of `CCOC(=O)C1=C(NN2CCOCC2)O/C(=C\c2c[nH]c3ncccc23)C1=O` [Example 142, Ethyl 5-[(1H-pyrrolo[2,3-b]pyridin-3-yl)methylene]-2-(morpholinoamino)-4-oxo-4,5-dihydrofuran-3-carboxylate], in test [1] (setting [3]), the IC50 came to 3 nM. In test [2], the inhibition at 0.1 µM lay within 20 to 50%. The like results for `Cc1cc(OCCO)ccc1NC1=C(C(=O)OC(C)C)C(=O)/C(=C/c2c[nH]c3ncccc23)O1` [Example 157, Isopropyl 5-[(1H-pyrrolo[2,3-b]pyridin-3-yl)methylene]-2-{[4-(2-hydroxyethoxy)-2-methylphenyl]amino}-4-oxo-4,5-dihydrofuran-3-carboxylate] were, in that order, 3 nM and 20 to 50%. The like results for `COCCOC(=O)C1=C(Nc2ccccc2Cl)O/C(=C\c2c[nH]c3ncccc23)C1=O` [Example 173, 2-Methoxyethyl 5-[(1H-pyrrolo[2,3-b]pyridin-3-yl)methylene]-2-[(2-chlorophenyl)amino]-4-oxo-4,5-dihydrofuran-3-carboxylate] were, in that order, 3 nM and < 20%.

`O=C1C=C(NC2CCCCCC2)O/C1=C\c1c[nH]c2ncccc12` [Example 226, 2-[(1H-Pyrrolo[2,3-b]pyridin-3-yl)methylene]-5-(cycloheptylamino)furan-3(2H)-one]: the IC50 in test [1] (setting [3]) came out at 4 nM. Further, the inhibition at 0.1 µM in test [2] is < 20%.

Turning to `Cc1cc(F)ccc1NC1=CC(=O)/C(=C/c2c[nH]c3ncccc23)O1` [Example 233, 2-[(1H-Pyrrolo[2,3-b]pyridin-3-yl)methylene]-5-[(4-fluoro-2-methylphenyl)amino]furan-3(2H)-one], the IC50 in test [1] (setting [3]) was 2 nM. For the same compound, in test [2], the inhibition at 0.1 µM fell in the range of 20 to 50%. In test [1], `O=C1C=C(Nc2ccc3[nH]ncc3c2)O/C1=C\c1c[nH]c2ncccc12` [Example 239, 2-[(1H-Pyrrolo[2,3-b]pyridin-3-yl)methylene]-5-[(5-indazolyl)amino]furan-3(2H)-one] yielded an IC50 of 1 nM. Besides, in test [2], the inhibition at 0.1 µM lay within 20 to 50%. As to `Cc1ccsc1CNC1=CC(=O)/C(=C/c2c[nH]c3ncccc23)O1` [Example 242, 2-[(1H-Pyrrolo[2,3-b]pyridin-3-yl)methylene]-5-{[(3-methyl-2-thienyl)methyl]amino}furan-3(2H)-one], in test [1], the IC50 stood at 1 nM. In test [2], the inhibition at 0.1 µM was < 20%.

(Values after patent US8742113B2, “Furanone derivative” (SBI Biotech Co., Ltd., priority 2011, dated 2014).)
